From patent US9834525B2, “Inhibitors of paxillin function and related compositions and methods” (UNIVERSITY OF TENNESSEE RESEARCH FOUNDATION, priority 2015, dated 2017)

Key:
Assay type in all cases: cell-based, human
[1] = system: retinal endothelial cells (REC); experiment: VEGF-induced REC proliferation, WST-1 metabolic assay; details: Compound (II-4) (500 nM), LY294002 (1004), SU6656 (104), U0126 (104) [sic]
Procedure: To investigate the potential of compound (II-4) affecting the proliferative capacity of RECs treated with VEGF, proliferation was measured using the metabolic assay based on the tetrazolium salt, WST-1. […] To rule out the possibility that this observation was related to cytotoxicity, RECs were incubated with a high concentration of compound (II-4) (1 μM) for 24 hours. Cells were harvested and apoptosis measured with Annexin-V/Propidium Iodide (PI) staining and analyzed using flow cytometry.
FIG. 18: REC Proliferation and Flow cytometry analysis of apoptosis in REC. A) VEGF-induced cellular proliferation was assessed using the WST-1 metabolic assay. […] (*P<0.0001). Nuclei were stained with DRAQ5 and imaged to show trend of decreasing proliferation. B) Apoptosis was measured using Annexin V/PI staining Compound (II-4) (1 μM) appears to be non-cytotoxic to retinal endothelial cells after 24 hour incubation (n≈10,000 cells).
FIG. 21: REC Proliferation. […] (*, # P<0.001; Mean±SD, N=8/group).

paxillin (pY118) = experiment: Western blot of VEGF-induced paxillin Y118 phosphorylation in REC; details: REC under VEGF; compound (II-4) 500 nM, SU6656 1 μM
Procedure: (§1) REC, Mel 270, OMM 2.5 under Hepatocyte Growth Factor (HGF) or Vascular Endothelial Growth Factor (VEGF) stimulation conditions: Cell lysates were collected in RIPA lysis buffer (50 mM Tris-HCl, pH 7.4, 150 mM NaCl, 2 mM EDTA, 1% Nonidet P-40, 0.1% SDS) with protease 1× inhibitor cocktail (Roche; Indianapolis, Ind.). Lysates were kept on ice and centrifuged at 10,000×g×10 minutes and total protein was measured using the BCA assay (Pierce, Rockford, Ill.). Protein samples were mixed with 4×LDS loading buffer with 2.5% 2-mercaptoethanol (Sigma-Aldrich), heated to 70° C. for 10 minutes, and loaded on NuPAGE 4-12% Bis-Tris gel (Invitrogen, Carlsbad, Calif.). Immunoblotting was performed with nitrocellulose membranes (Bio-Rad, Hercules, Calif.) at 170-mA start and 110-mA end at 25 V for two hours in NuPAGE transfer buffer (Invitrogen) containing 20% methanol. Membranes were blocked using Odyssey blocking buffer (LI-COR; Lincoln, Nebr.) for one hour at room temperature with gentle shaking Membranes were then incubated at 4° C. with specific primary antibodies (1:1000) overnight. Cellular protein was normalized using rabbit-GAPDH or mouse-α-Tubulin [1:20,000] (Cell Signaling, Danvers, Mass.; LI-COR, respectively). Secondary antibodies (IRDye 800CW goat anti-rabbit and IRDye 680LT goat anti-mouse) [1:10,000] were incubated in the dark at room temperature for 45 minutes. Dual-channel infrared scan and quantitation of immunoblots were conducted using the ODYSSEY Sa infrared imaging system with Image Studio (Ver. 3.1.4) (LI-COR).
The α4 subunit of the cytoplasmic tail of VLA-4 interacts with the cytoskeletal adaptor paxillin, merging intracellular signaling events that drive cellular proliferation and migration (FIG. 13). Compound (II-4) inhibits phosphorylation of paxillin at Y118 (pY118) in the LD-region that interacts with the α4 subunit of VLA-4. To confirm the inhibition of pY118 of paxillin after use of compound (II-4) retinal endothelial cells (REC) were activated with Vascular Endothelial Growth Factor (VEGF) at 50 ng/mL in the presence or absence (vehicle) of compound (II-4) at a concentration of […] for 4-hrs. […] VEGF-induced pY118 was prevented by treatment with compound (II-4) [VEGF-REC treatment versus untreated, *p<0.005; VEGF-induced versus compound (II-4) treatment, **p<0.05—FIG. 13C].
To gain insight into the mechanistic basis for this phenotype, the effect of compound (II-4) on the Src/FAK/paxillin/ERK signalsome in RECs under VEGF was examined. […] Next, characterization of the potential of compound (II-4) to affect FA disassembly through inactivation of ERK was explored. […]
FIG. 13: Targeting the alpha-4 subunit of VLA-4 signaling through inhibition of paxillin. […] Phosphorylation measured by Western Blot. […]

[2] = system: FAK (Y397, Y576/577, Y925); experiment: Western blot of VEGF-induced FAK phosphorylation in REC; details: REC under VEGF; compound (II-4) 500 nM, SU6656 1 μM
Procedure: as §1, with “Secondary antibodies (IRDye 800CW goat anti-rabbit and IRDye 680LT goat anti-mouse) [1:10,000] were incubated in the dark at room temperature for 45 minutes.” left out, “(LI-COR). […]” for “(LI-COR).”

AKT (Ser473) = experiment: Western blot of VEGF-induced AKT phosphorylation in REC; details: REC under VEGF; compound (II-4) 500 nM, SU6656 1 μM
Procedure: as §1, with “Secondary antibodies (IRDye 800CW goat anti-rabbit and IRDye 680LT goat anti-mouse) [1:10,000] were incubated in the dark at room temperature for 45 minutes.” left out, “(LI-COR). […]” for “(LI-COR).”

ERK1/2 = experiment: Western blot of VEGF-induced ERK1/2 phosphorylation in REC; details: REC under VEGF; compound (II-4) 500 nM, SU6656 1 μM
Procedure: as §1, with “Secondary antibodies (IRDye 800CW goat anti-rabbit and IRDye 680LT goat anti-mouse) [1:10,000] were incubated in the dark at room temperature for 45 minutes.” left out, “(LI-COR). […]” for “(LI-COR).”

Row | Structure (SMILES) | VEGF-induced REC proliferation (FIG. 21) [1] | VEGF-induced PaxY118 phosphorylation (FIG. 20) (paxillin (pY118)) | VEGF-induced FAK activation (Y397, Y925) [2] | VEGF-induced activation of AKT (P-AKT Ser473) (AKT (Ser473)) | VEGF-dependent ERK1/2 phosphorylation (ERK1/2)
1 | CN(C)S(=O)(=O)c1ccc2c(c1)/C(=C/c1cc3c([nH]1)CCCC3)C(=O)N2 [SU6656, reference compound] | inhibited | inhibited | inhibited | inhibited | Neither SU6656 nor compound (II-4) decreased
2 | N#CC(=C(/N)Sc1ccccc1N)/C(C#N)=C(\N)Sc1ccccc1N [U0126, reference compound] | VEGF-induced REC proliferation was inhibited | no change in activation of Y118 | – | – | –
